Laboratory results from patent US20130217913A1, “Antimalarial Drug Comprising Alaremycin or Derivative Thereof as Active Ingredient” (SBI Pharmaceuticals Co., Ltd., priority 2010, published 2013).

Experiments:
human malaria parasites [1] = assay: [3H]-hypoxanthine incorporation (de novo nucleic acid synthesis) in infected human red blood cells, Example 2; assay type: cell-based; conditions: for specific radioactivity incorporation, [^3H]-hypoxanthine: 25 hours, value at 0.1 μM set to 100%
Method: Human red blood cells infected at an infection rate of 2% with ring-stage human malaria parasites were cultured in RPMI1640 medium containing AlbuMAX-II at 37° C. and a hematocrit of 4%. 50 μL of a medium containing Alaremycin or any of the other compounds shown in Table 2 was mixed with 50 μL of the culture to the indicated concentrations, to which [^3H]-hypoxanthine was then added, followed by culture in a 96-well plate at 37° C. The repeat number was 2 for each concentration. After 25 hours, they were examined and the amount β-rays released from [^3H]-hypoxanthine incorporated into a nucleic acid with de novo nucleic acid synthesis was measured using a scintillation counter. The averages of the measured values were calculated, and the specific radioactivity incorporation was calculated by setting the measured value in the experiment for which each compound is contained at a final concentration of 0.1 μM, to 100%.

human malaria parasites [2] = assay: [3H]-hypoxanthine incorporation (de novo nucleic acid synthesis) in infected human red blood cells, Example 1; assay type: cell-based; conditions: for Specific Radioactivity Incorporation (%) [^3H]-Hypoxanthine: 25 hours, value at 0.01 μM set to 100%
Method: (§1) Human red blood cells infected at an infection rate of 2% with ring-stage human malaria parasites were cultured in RPMI1640 medium containing AlbuMAX-II (Invitrogen) at 37° C. and a hematocrit of 4%. 50 μL of the culture was mixed with 50 μL of a medium containing Alaremycin to the concentrations shown in Table 1, to which [^3H]-hypoxanthine and [^14C]-isoleucine isoleucine were then added, followed by culture in a 96-well plate at 37° C. The repeat number was 2 for each concentration. After 25 hours, they were examined and the amount of (3-rays released from [^3H]-hypoxanthine incorporated into a nucleic acid with de novo nucleic acid synthesis or from [^14C]-isoleucine incorporated into a protein with de novo protein synthesis was measured using a scintillation counter. The averages of the measured values were calculated, and the specific radioactivity incorporation was calculated by setting the measured value in the experiment for which Alaremycin was contained at a final concentration of 0.01 μM, to 100%. The results are shown in Table 1.

human malaria parasites [3] = assay: [14C]-isoleucine incorporation (de novo protein synthesis) in infected human red blood cells, Example 1; assay type: cell-based; conditions: 25 hours, value at 0.01 μM set to 100%
Method: as §1

[4] = target: porphobilinogen synthase (PBGS) (Pseudomonas aeruginosa, UniProt Q59643); conditions: Non-patent Document 3; cited from earlier work
Escherichia coli = conditions: Non-patent Documents 2, 3; cited from earlier work
Pseudomonas aeruginosa = conditions: Non-patent Document 3; cited from earlier work

porphobilinogen synthase (PBGS), sequence (Q59643 whole entry): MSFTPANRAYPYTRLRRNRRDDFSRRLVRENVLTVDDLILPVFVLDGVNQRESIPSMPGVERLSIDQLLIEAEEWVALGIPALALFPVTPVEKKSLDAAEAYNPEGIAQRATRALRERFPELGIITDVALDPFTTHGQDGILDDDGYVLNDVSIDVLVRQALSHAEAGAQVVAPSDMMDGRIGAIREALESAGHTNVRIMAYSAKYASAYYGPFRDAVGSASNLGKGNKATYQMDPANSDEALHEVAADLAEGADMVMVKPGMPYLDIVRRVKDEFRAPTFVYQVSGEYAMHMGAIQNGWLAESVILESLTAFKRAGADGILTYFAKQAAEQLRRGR

SMILES: NCC(=O)CCC(=O)O [5-Aminolevulinic acid, 5-aminolevulinic acid]
- specific radioactivity incorporation, [^3H]-hypoxanthine (human malaria parasites [1]; 0.1 μM): 100%
- specific radioactivity incorporation, [^3H]-hypoxanthine (human malaria parasites [1]; 1 μM): 102.7%
- specific radioactivity incorporation, [^3H]-hypoxanthine (human malaria parasites [1]; 5 μM): 108.5%
- specific radioactivity incorporation, [^3H]-hypoxanthine (human malaria parasites [1]; 10 μM): 104.4%
- specific radioactivity incorporation, [^3H]-hypoxanthine (human malaria parasites [1]; 50 μM): 97.3%
- specific radioactivity incorporation, [^3H]-hypoxanthine (human malaria parasites [1]; 100 μM): 101.2%

SMILES: CC(=O)CC(=O)CCC(=O)O [Succinylacetone, 4,6-dioxoheptanoic acid]
- specific radioactivity incorporation, [^3H]-hypoxanthine (human malaria parasites [1]; 0.1 μM): 100%
- specific radioactivity incorporation, [^3H]-hypoxanthine (human malaria parasites [1]; 1 μM): 94.4%
- specific radioactivity incorporation, [^3H]-hypoxanthine (human malaria parasites [1]; 5 μM): 94.3%
- specific radioactivity incorporation, [^3H]-hypoxanthine (human malaria parasites [1]; 10 μM): 94.7%
- specific radioactivity incorporation, [^3H]-hypoxanthine (human malaria parasites [1]; 50 μM): 99.8%
- specific radioactivity incorporation, [^3H]-hypoxanthine (human malaria parasites [1]; 100 μM): 90.9%
- specific radioactivity incorporation, [^3H]-hypoxanthine (human malaria parasites [1]; 500 μM): 94.4%
- specific radioactivity incorporation, [^3H]-hypoxanthine (human malaria parasites [1]; 1000 μM): 88.6%
- specific radioactivity incorporation, [^3H]-hypoxanthine (human malaria parasites [1]; 5000 μM): 58.8%
- specific radioactivity incorporation, [^3H]-hypoxanthine (human malaria parasites [1]; 10000 μM): 21.4%

SMILES: O=C(O)CCC(=O)CCC(=O)CCC(=O)O [4,7-Dioxosebacic acid, 4,7-dioxosebacic acid]
- specific radioactivity incorporation, [^3H]-hypoxanthine (human malaria parasites [1]; 0.1 μM): 100%
- specific radioactivity incorporation, [^3H]-hypoxanthine (human malaria parasites [1]; 1 μM): 110.3%
- specific radioactivity incorporation, [^3H]-hypoxanthine (human malaria parasites [1]; 5 μM): 106.9%
- specific radioactivity incorporation, [^3H]-hypoxanthine (human malaria parasites [1]; 10 μM): 103.4%
- specific radioactivity incorporation, [^3H]-hypoxanthine (human malaria parasites [1]; 50 μM): 108%
- specific radioactivity incorporation, [^3H]-hypoxanthine (human malaria parasites [1]; 100 μM): 102.1%
- specific radioactivity incorporation, [^3H]-hypoxanthine (human malaria parasites [1]; 500 μM): 106.8%
- specific radioactivity incorporation, [^3H]-hypoxanthine (human malaria parasites [1]; 1000 μM): 100.1%
- specific radioactivity incorporation, [^3H]-hypoxanthine (human malaria parasites [1]; 5000 μM): 100%
- specific radioactivity incorporation, [^3H]-hypoxanthine (human malaria parasites [1]; 10000 μM): 97.1%

SMILES: C=C(NC(C)=O)C(=O)CCC(=O)O [Alaremycin, 5-acetamido-4-oxo-5-hexenoic acid]
- Specific Radioactivity Incorporation (%) [^3H]-Hypoxanthine (human malaria parasites [2]; 0.01 μM): 100%
- Specific Radioactivity Incorporation (%) [^3H]-Hypoxanthine (human malaria parasites [2]; 0.1 μM): 100.4%
- Specific Radioactivity Incorporation (%) [^3H]-Hypoxanthine (human malaria parasites [2]; 1 μM): 92.8%
- Specific Radioactivity Incorporation (%) [^3H]-Hypoxanthine (human malaria parasites [2]; 5 μM): 84.8%
- Specific Radioactivity Incorporation (%) [^3H]-Hypoxanthine (human malaria parasites [2]; 10 μM): 66.8%
- Specific Radioactivity Incorporation (%) [^3H]-Hypoxanthine (human malaria parasites [2]; 50 μM): 2.8%
- Specific Radioactivity Incorporation (%) [^3H]-Hypoxanthine (human malaria parasites [2]; 100 μM): 1.5%
- Specific Radioactivity Incorporation (%) [^3H]-Hypoxanthine (human malaria parasites [2]; 200 μM): 1.1%
- inhibition at 15 µM (human malaria parasites [2]; Homo sapiens, Erythrocyte, 15 μM, rough statement for both [^3H]-hypoxanthine and [^14C]-isoleucine, read-out: inhibition of radioactivity incorporation): ~50%
- inhibition at 50 µM (human malaria parasites [2]; Homo sapiens, Erythrocyte, 50 μM, rough statement for both [^3H]-hypoxanthine and [^14C]-isoleucine, read-out: inhibition of radioactivity incorporation): ≥ 95%
- inhibition of nucleic acid metabolism and protein synthesis in human malaria parasites (in words) (human malaria parasites [2]; measured as in Example 1, both nucleic acid and protein synthesis): inhibited by Alaremycin in a concentration-dependent manner
- Specific Radioactivity Incorporation (%) [^14C]-Isoleucine (human malaria parasites [3]; 0.01 μM): 100%
- Specific Radioactivity Incorporation (%) [^14C]-Isoleucine (human malaria parasites [3]; 0.1 μM): 93.3%
- Specific Radioactivity Incorporation (%) [^14C]-Isoleucine (human malaria parasites [3]; 1 μM): 88.8%
- Specific Radioactivity Incorporation (%) [^14C]-Isoleucine (human malaria parasites [3]; 5 μM): 84.7%
- Specific Radioactivity Incorporation (%) [^14C]-Isoleucine (human malaria parasites [3]; 10 μM): 64.8%
- Specific Radioactivity Incorporation (%) [^14C]-Isoleucine (human malaria parasites [3]; 50 μM): 3.6%
- Specific Radioactivity Incorporation (%) [^14C]-Isoleucine (human malaria parasites [3]; 100 μM): 2.1%
- Specific Radioactivity Incorporation (%) [^14C]-Isoleucine (human malaria parasites [3]; 200 μM): 1%
- specific radioactivity incorporation, [^3H]-hypoxanthine (human malaria parasites [1]; 0.1 μM): 100%
- specific radioactivity incorporation, [^3H]-hypoxanthine (human malaria parasites [1]; 1 μM): 100.5%
- specific radioactivity incorporation, [^3H]-hypoxanthine (human malaria parasites [1]; 5 μM): 90.7%
- specific radioactivity incorporation, [^3H]-hypoxanthine (human malaria parasites [1]; 10 μM): 83.8%
- specific radioactivity incorporation, [^3H]-hypoxanthine (human malaria parasites [1]; 50 μM): 2.8%
- specific radioactivity incorporation, [^3H]-hypoxanthine (human malaria parasites [1]; 100 μM): 1.6%
- inhibition of nucleic acid metabolism in human malaria parasites (in words) (human malaria parasites [1]; compared to succinylacetone and 4,7-dioxosebacic acid): sufficiently inhibit nucleic acid metabolism in human malaria parasites in a significantly low concentration
- inhibition of porphobilinogen synthase (in words) [4]: act as an inhibitor of porphobilinogen synthase (PBGS)
- antibacterial activity (in words) (Escherichia coli): has antibacterial activities
- antibacterial activity (in words) (Pseudomonas aeruginosa): has antibacterial activities
